The target in the experiment is T1, Scytalone dehydratase (Magnaporthe oryzae (strain 70-15 / FGSC 8958) (Rice blast fungus)(Pyricularia oryzae), UniProt P56221).
T1 sequence (P56221 whole entry): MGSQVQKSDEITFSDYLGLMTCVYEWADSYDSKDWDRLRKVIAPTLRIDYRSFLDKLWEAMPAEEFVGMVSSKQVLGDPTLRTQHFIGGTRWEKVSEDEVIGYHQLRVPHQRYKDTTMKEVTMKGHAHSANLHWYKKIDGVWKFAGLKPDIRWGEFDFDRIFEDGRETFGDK
Put plainly: Compound was evaluated for its inhibition constant against scytalone dehydratase (SD). On the set-up: species or system Pyricularia grisea.

Ki data for 1 compound are collected here from ChEMBL document CHEMBL1133413, “Selection of a potent inhibitor of trihydroxynaphthalene reductase by sorting disease control data” (Bioorg Med Chem Lett, 2000).

Each structure is given as a SMILES string.

A word on the Ki: it is the equilibrium dissociation constant of an inhibitor or competing ligand from its target. A high value points to a looser hold on the target. On to `O=C(/C=C/c1ccccc1)NC(=S)Nc1ccc(S(=O)(=O)Nc2cc(F)ccc2F)cc1`, for which the Ki was 6.4 nM.
